Measured values as given in publication PMC10934055, “α-Glucosidase Inhibitory Phytochemical Components of Chinese Endemic Plant Whitfordiodendron filipes var. tomentosum” (Plants, 2024).
Read-outs that look alike come from different tables or passages of the source.

Columns and labels:
α-glucosidase [1] = conditions: read-out: IC50 (α-glucosidase inhibitory activity), cited from earlier work
α-Glucosidase [2] = biological target: T1, α-Glucosidase (Saccharomyces cerevisiae, UniProt P53341); experiment: biochemical; conditions: for inhibition at 2 µg/mL / inhibition at 4 µg/mL / inhibition at 6 µg/mL / inhibition at 8 µg/mL / inhibition at 10 µg/mL: read-out: α-glucosidase inhibition rate;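 on all read-outs here: yeast α-glucosidase premixed with inhibitor in phosphate buffer for 15 min at 37 °C, then a further 15 min reaction with p-NPG substrate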
T1 construct: purchased Sigma (Sigma-Aldrich) G5003
T1 sequence (P53341 whole entry): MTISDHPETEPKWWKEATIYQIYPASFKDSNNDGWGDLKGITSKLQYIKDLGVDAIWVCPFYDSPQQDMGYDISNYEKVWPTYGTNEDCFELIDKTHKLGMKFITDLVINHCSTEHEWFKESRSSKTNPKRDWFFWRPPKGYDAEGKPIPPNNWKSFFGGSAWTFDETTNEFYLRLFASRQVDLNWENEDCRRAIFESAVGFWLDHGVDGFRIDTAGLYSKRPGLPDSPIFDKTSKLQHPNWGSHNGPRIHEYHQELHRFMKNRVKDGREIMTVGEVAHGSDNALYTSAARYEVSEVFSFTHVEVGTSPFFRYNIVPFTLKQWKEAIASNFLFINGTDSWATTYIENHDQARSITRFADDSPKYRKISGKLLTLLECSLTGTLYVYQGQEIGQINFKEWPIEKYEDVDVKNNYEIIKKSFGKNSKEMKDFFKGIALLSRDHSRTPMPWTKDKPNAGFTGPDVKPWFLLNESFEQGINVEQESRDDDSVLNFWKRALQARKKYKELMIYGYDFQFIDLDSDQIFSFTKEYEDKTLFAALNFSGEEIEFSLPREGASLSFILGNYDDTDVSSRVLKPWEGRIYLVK

[3] = read-out: IC50 (α-glucosidase inhibitory bioassay), baker's yeast α-glucosidase, p-NPG, pH 6.86, 37 °C

SMILES	IC50 (α-glucosidase [1]; compounds isolated from Coffea canephora)	α-glucosidase inhibitory activity (judgement in words) (α-Glucosidase [2])	IC50 (α-Glucosidase [2]; baker's yeast α-glucosidase, p-NPG, pH 6.86, 37 °C, read-out: IC50 (α-glucosidase inhibitory bioassay))	inhibition at 2 µg/mL (α-Glucosidase [2])	inhibition at 4 µg/mL (α-Glucosidase [2])	inhibition at 6 µg/mL (α-Glucosidase [2])	inhibition at 8 µg/mL (α-Glucosidase [2])	inhibition at 10 µg/mL (α-Glucosidase [2])	inhibition at 2 µg/mL (α-Glucosidase [2]; concentration 2.0 μg·mL-1)	inhibition at 4 µg/mL (α-Glucosidase [2]; concentration 4.0 μg·mL-1)	inhibition at 6 µg/mL (α-Glucosidase [2]; concentration 6.0 μg·mL-1)	inhibition at 8 µg/mL (α-Glucosidase [2]; concentration 8.0 μg·mL-1)	inhibition at 10 µg/mL (α-Glucosidase [2]; concentration 10.0 μg·mL-1)	IC50 (α-glucosidase [1]; compound isolated from Sabia parviflora)	IC50 (α-Glucosidase [2])	IC50 (α-Glucosidase [2]; [3])	IC50 (α-glucosidase [1]; compound isolated from Buddleja saligna)
CC(=O)O[C@H]1CC[C@]2(C)[C@H]3CC=C4[C@@H]5CC(C)(C)CC[C@]5(C(=O)O)CC[C@@]4(C)[C@]3(C)CC[C@H]2C1(C)C [Compound 1, 3-acetyloleanolic acid]	146.9 ± 1.2 µM	significant inhibitory activities	16.8 ± 0.23 µM	10.1%	24.3%	38.2%	48.3%	56.5%	–	–	–	–	–	–	–	–	–
CC1(C)CC[C@]2(C(=O)O)CC[C@]3(C)C(=CC[C@@H]4[C@@]5(C)CC[C@H](O)C(C)(C)[C@@H]5CC[C@]43C)[C@@H]2C1 [Compound 2, oleanolic acid]	–	significant inhibitory activities	–	–	27.8%	39.9%	–	61.5%	–	–	–	–	–	–	–	–	–
CC(C)(O)[C@@H]1CC[C@]2(C)CC[C@]3(C)[C@H](CC[C@@H]4[C@@]5(C)CC[C@H](O)C(C)(C)[C@@H]5CC[C@]43C)[C@@H]12 [Compound 3, monogynol A]	–	inactive	–	–	–	–	–	–	2.2%	3.1%	3.4%	3.4%	4.3%	–	–	–	–
C=C(C)[C@@H]1CC[C@]2(C)CC[C@]3(C)[C@H](CC[C@@H]4[C@@]5(C)CC[C@H](O)C(C)(C)[C@@H]5CC[C@]43C)[C@@H]12 [Compound 4, lupeol]	–	significant inhibitory activities	–	–	–	–	–	–	12.5%	25.1%	38.6%	49.2%	58.4%	452 ± 5.3 µM	19.2 ± 0.17 µM	–	–
CC(C)(O)[C@@H]1CC[C@]2(C)CC[C@]3(C)[C@H](CC[C@@H]4[C@@]5(C)CCC(=O)C(C)(C)[C@@H]5CC[C@]43C)[C@@H]12 [Compound 5, 20-hydroxy-lupan-3-one]	–	inactive	–	–	–	–	–	–	7.2%	9.3%	11%	13.4%	15.8%	–	–	< 100 µM	–
C=C(C)[C@@H]1CC[C@]2(C(=O)O)CC[C@]3(C)[C@H](CC[C@@H]4[C@@]5(C)CCC(=O)C(C)(C)[C@@H]5CC[C@]43C)[C@@H]12 [Compound 6, betulonic acid]	–	significant inhibitory activities	–	–	–	–	–	–	10.1%	24.3%	38.2%	51.7%	60.5%	–	17.2 ± 0.27 µM	–	60.1 µM
CC(=O)O[C@H]1CC[C@]2(C)[C@H]3CC[C@@H]4[C@@H]([C@@](C)(O)CCC=C(C)C)CC[C@@]4(C)[C@]3(C)CC[C@H]2C1(C)C [Compound 8, dammar-24-ene-3β-acetoxy-20S-ol]	–	–	–	–	–	–	–	–	3.7%	6.2%	8.1%	10.2%	11.1%	–	–	< 100 µM	–
CCC(CC[C@@H](C)[C@H]1CC[C@H]2[C@@H]3CCC4=CC(=O)CC[C@]4(C)[C@H]3CC[C@]12C)C(C)C (stereo partly drawn) [Compound 9, (20R)-24-ethylcholest-4-en-3-one]	–	–	–	6.1%	8.3%	12.2%	15.6%	17.5%	–	–	–	–	–	–	–	< 100 µM	–
CC[C@H](/C=C/[C@@H](C)[C@H]1CC[C@H]2[C@@H]3CC=C4C[C@@H](O)CC[C@]4(C)[C@H]3CC[C@]12C)C(C)C [Compound 10, stigmasterol]	–	–	–	2.4%	4.3%	7.1%	9.6%	10.1%	–	–	–	–	–	–	–	< 100 µM	–
C[C@H]1O[C@H](O[C@H]2[C@H](O)[C@@H](O)[C@@H](O[C@H]3[C@H](O)[C@@H](O)C(O)O[C@@H]3CO)O[C@@H]2CO)[C@H](O)[C@@H](O)[C@@H]1N[C@H]1C=C(CO)[C@@H](O)[C@H](O)[C@H]1O (stereo partly shown) [acarbose, reference compound]	–	–	–	11.1%	25.3%	37.9%	52.4%	65.7%	–	–	–	–	–	–	–	–	–
